Results taken from BindingDB's records for doi:10.1016/j.bmcl.2013.01.056 (Fudan University, 2013).
pIC50: −log10 of the molar value.

Target: Signal transducer and activator of transcription 3 (Homo sapiens, UniProt P40763)
Experiment: Inhibition of IL-6-induced STAT3 pathway in human HepG2 cells by luciferase reporter gene assay

Signal transducer and activator of transcription 3, sequence (P40763 whole entry): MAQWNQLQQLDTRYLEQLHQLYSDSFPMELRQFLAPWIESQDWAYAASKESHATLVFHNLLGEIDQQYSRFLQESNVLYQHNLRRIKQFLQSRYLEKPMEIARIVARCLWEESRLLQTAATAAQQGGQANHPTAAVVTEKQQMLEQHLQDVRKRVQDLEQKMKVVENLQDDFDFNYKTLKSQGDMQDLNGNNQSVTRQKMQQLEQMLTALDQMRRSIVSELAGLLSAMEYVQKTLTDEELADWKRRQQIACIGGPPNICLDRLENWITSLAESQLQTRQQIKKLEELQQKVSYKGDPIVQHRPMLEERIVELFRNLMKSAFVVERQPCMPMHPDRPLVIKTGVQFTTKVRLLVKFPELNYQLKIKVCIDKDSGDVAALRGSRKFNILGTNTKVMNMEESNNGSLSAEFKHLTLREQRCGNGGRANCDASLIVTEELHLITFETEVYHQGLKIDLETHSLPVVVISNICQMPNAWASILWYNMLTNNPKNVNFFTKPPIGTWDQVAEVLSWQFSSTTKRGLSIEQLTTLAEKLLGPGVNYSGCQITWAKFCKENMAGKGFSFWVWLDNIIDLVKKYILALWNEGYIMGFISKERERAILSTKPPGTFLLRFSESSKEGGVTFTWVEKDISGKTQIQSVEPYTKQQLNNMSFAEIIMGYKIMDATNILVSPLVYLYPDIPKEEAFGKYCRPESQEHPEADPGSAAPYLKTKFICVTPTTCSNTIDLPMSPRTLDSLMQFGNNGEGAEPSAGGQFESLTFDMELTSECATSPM

pIC50	SMILES
4.22	OCCNCc1cc(Br)ccc1OCc1ccc(Cl)cc1
4.61	NS(=O)(=O)c1ccc(NCc2cc(Cl)ccc2OCc2ccccc2)cc1
4.57	Oc1ccc(NCc2cc(Cl)ccc2OCc2ccc(Cl)cc2)cc1
